How the values were obtained:
Assay in all cases: NCI 60-cell line one-dose antiproliferative screen (SRB)
Assay type in all cases: cell-based
SNB-19 = conditions: Homo sapiens, read-out: growth inhibition % (GI%)
Summary of the method: (§1)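 Tumour cells pre-incubated 24 h, then dosed once at 10 µM (from DMSO stock diluted in medium with gentamicin). After 48 h, TCA fixation and SRB staining; absorbance 515 nm converted to growth inhibition percentage.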

SN 12 C = conditions: Homo sapiens, SN12C, read-out: growth inhibition % (GI%)
Summary of the method: as §1

EKVX = conditions: Homo sapiens, read-out: growth inhibition % (GI%)
Summary of the method: as §1

RXF 393 = conditions: Homo sapiens, read-out: growth inhibition % (GI%)
Summary of the method: as §1

UO-31 = conditions: Homo sapiens, read-out: growth inhibition % (GI%)
Summary of the method: as §1

M14 = conditions: Homo sapiens, read-out: growth inhibition % (GI%)
Summary of the method: as §1

SW-620 = conditions: Homo sapiens, read-out: growth inhibition % (GI%)
Summary of the method: as §1

A498 = conditions: Homo sapiens, read-out: growth inhibition % (GI%)
Summary of the method: as §1

786-0 = conditions: Homo sapiens, read-out: growth inhibition % (GI%)
Summary of the method: as §1

U251 = conditions: Homo sapiens, U-251, read-out: growth inhibition % (GI%)
Summary of the method: as §1

NCI-H522 = conditions: Homo sapiens, read-out: growth inhibition % (GI%)
Summary of the method: as §1

NCI-H460 = conditions: Homo sapiens, read-out: growth inhibition % (GI%)
Summary of the method: as §1

MCF7 = conditions: Homo sapiens, read-out: growth inhibition % (GI%)
Summary of the method: as §1

SNB-75 = conditions: Homo sapiens, read-out: growth inhibition % (GI%)
Summary of the method: as §1

ACHN = conditions: Homo sapiens, read-out: growth inhibition % (GI%)
Summary of the method: as §1

SF-539 = conditions: Homo sapiens, read-out: growth inhibition % (GI%)
Summary of the method: as §1

MDA-MB-435 = conditions: Homo sapiens, read-out: growth inhibition % (GI%)
Summary of the method: as §1

MDA-MB-468 = conditions: Homo sapiens, read-out: growth inhibition % (GI%)
Summary of the method: as §1

PC-3 = conditions: Homo sapiens, read-out: growth inhibition % (GI%)
Summary of the method: as §1

SK-MEL-5 = conditions: Homo sapiens, read-out: growth inhibition % (GI%)
Summary of the method: as §1

OVCAR-8 = conditions: Homo sapiens, read-out: growth inhibition % (GI%)
Summary of the method: as §1

OVCAR-5 = conditions: Homo sapiens, read-out: growth inhibition % (GI%)
Summary of the method: as §1

NCI-H322M = conditions: Homo sapiens, read-out: growth inhibition % (GI%)
Summary of the method: as §1

HCT-116 = conditions: Homo sapiens, read-out: growth inhibition % (GI%)
Summary of the method: as §1

CAKI-1 = conditions: Homo sapiens, read-out: growth inhibition % (GI%)
Summary of the method: as §1

NCI/ADR-RES = conditions: Homo sapiens, read-out: growth inhibition % (GI%)
Summary of the method: as §1

SF-295 = conditions: Homo sapiens, read-out: growth inhibition % (GI%)
Summary of the method: as §1

A549/ATCC = conditions: Homo sapiens, read-out: growth inhibition % (GI%)
Summary of the method: as §1

HOP-92 = conditions: Homo sapiens, read-out: growth inhibition % (GI%)
Summary of the method: as §1

HOP-62 = conditions: Homo sapiens, read-out: growth inhibition % (GI%)
Summary of the method: as §1

NCI-H23 = conditions: Homo sapiens, read-out: growth inhibition % (GI%)
Summary of the method: as §1

NCI-H226 = conditions: Homo sapiens, read-out: growth inhibition % (GI%)
Summary of the method: as §1

OVCAR-4 = conditions: Homo sapiens, read-out: growth inhibition % (GI%)
Summary of the method: as §1

K-562 = conditions: Homo sapiens, K562, read-out: growth inhibition % (GI%)
Summary of the method: as §1

Cc1ccc(C(=O)c2ccc(CC(=O)NN3C(=O)CCC3=O)n2C)cc1 [Compound 7a, N-(2,5-Dioxopyrrolidin-1-yl)-2–(1-methyl-5–(4-methylbenzoyl)-1H-pyrrol-2-yl) acetamide]
inhibition at 10 µM (SNB-19): 20% | inhibition at 10 µM (SN 12 C): 19.1% | inhibition at 10 µM (EKVX): 23.9% | inhibition at 10 µM (RXF 393): < 10% | inhibition at 10 µM (UO-31): 41.2% | inhibition at 10 µM (M14): < 10% | inhibition at 10 µM (SW-620): < 10% | inhibition at 10 µM (A498): 14.5% | inhibition at 10 µM (786-0): < 10% | inhibition at 10 µM (U251): < 10% | inhibition at 10 µM (NCI-H522): 30.8% | inhibition at 10 µM (NCI-H460): < 10% | inhibition at 10 µM (MCF7): 14.4% | inhibition at 10 µM (SNB-75): 40.9% | inhibition at 10 µM (ACHN): 11.2% | inhibition at 10 µM (SF-539): < 10% | inhibition at 10 µM (MDA-MB-435): < 10% | inhibition at 10 µM (MDA-MB-468): < 10% | inhibition at 10 µM (PC-3): 10% | inhibition at 10 µM (SK-MEL-5): < 10% | inhibition at 10 µM (OVCAR-8): 11% | inhibition at 10 µM (OVCAR-5): 10.6% | inhibition at 10 µM (NCI-H322M): < 10% | inhibition at 10 µM (HCT-116): 11.3% | inhibition at 10 µM (CAKI-1): 28.3% | inhibition at 10 µM (NCI/ADR-RES): 12.8% | inhibition at 10 µM (SF-295): < 10% | inhibition at 10 µM (A549/ATCC): 11.1% | inhibition at 10 µM (HOP-92): 19.2% | inhibition at 10 µM (HOP-62): 15.5% | inhibition at 10 µM (NCI-H23): 24.8% | inhibition at 10 µM (NCI-H226): 22.6% | inhibition at 10 µM (OVCAR-4): 31.9% | inhibition at 10 µM (K-562): 11.2%
